Assay results: patent US9011826B2, “Cosmetic and dermatological formulations including isononyl benzoate” (Evonik Degussa GmbH, priority 2007, dated 2015)

Assays:
[1] = Dissolving power for crystalline UV light protection filters; type: physicochemical; conditions: 22° C., percent by weight; for Dissolving power (maximum dissolved amount of UV filter) BP-3: Benzophenone-3 dissolved in the product; for Dissolving power (maximum dissolved amount of UV filter) BEMT: Bis-ethylhexyloxyphenol Methoxyphenyl Triazine dissolved in the product; for Dissolving power (maximum dissolved amount of UV filter) BMDM: Butyl Methoxydibenzoylmethane dissolved in the product; for Dissolving power (maximum dissolved amount of UV filter) EHT: Octyl Triazone dissolved in the product
Text: Four representative UV-A or UV-B light protection filters were chosen as representatives for testing the dissolving power for crystalline UV light protection filters in isononyl benzoate (Vestinol® INB, Evonik Oxeno GmbH). These were Benzophenone-3 (2-hydroxy-4-methoxy-benzophenone, BP-3), Butyl Methoxydibenzoylmethane (BMDM), Octyl Triazone (2,4,6-trianilino-p-(carbo-2′-ethylhexyl-1′-oxy)-1,3,5-triazine, EHT) and bemotrizinol (Bis-ethylhexyloxyphenol Methoxyphenyl Triazine, BEMT).
For determination of the dissolving power for these […] UV light protection filters, in each case a particular amount (50 g) of one of the compounds according to the invention was initially introduced into the dissolving vessel and temperature-controlled at 22° C. 1 percent by weight of a UV light protection filter was then added and the mixture was stirred until this amount had dissolved completely and homogeneously. This operation was repeated until the maximum amount of the UV light protection filter which can be dissolved had been exceeded. For complete dissolving, a relatively long stirring time of several hours was often necessary at higher concentrations.
Once the maximum concentration had been roughly determined in this manner, the test was repeated with smaller weights of the UV light protection filter for fine determination of the concentration range around this maximum concentration.
The compound Tegosoft® TN (C12-15 Alkyl Benzoate) was used as a reference.

[2] = known solvents (lipids) for this UV-B filter; cited from earlier work

Molecule | Dissolving power (maximum dissolved amount of UV filter) BP-3 [1] | Dissolving power (maximum dissolved amount of UV filter) BEMT [1] | Dissolving power (maximum dissolved amount of UV filter) BMDM [1] | Dissolving power (maximum dissolved amount of UV filter) EHT [1] | Maximum amount of the filter dissolved by known solvents [2]
CC(C)CCCCCCOC(=O)c1ccccc1 [Isononyl Benzoate, isononyl benzoate] | 21% | 12% | 14% | 6% | –
CCCCC(CC)COC(=O)c1ccc(Nc2nc(Nc3ccc(C(=O)OCC(CC)CCCC)cc3)nc(Nc3ccc(C(=O)OCC(CC)CCCC)cc3)n2)cc1 (stereo not drawn) [UVINUL™ T 150, 4,4′,4″-(1,3,5-Triazine-2,4,6-triyltriimino)-tris-benzoic acid tris(2-ethylhexyl ester)] | – | – | – | – | approx. 15 wt. %
C12-15 Alkyl Benzoate [Tegosoft ® TN, reference compound] | 15% | 9% | 13% | 4% | –
